Earlier results as cited in patent US20140349947A1, “HAIR GROWTH AGENT (EMBODIMENTS) AND METHOD FOR HAIR REGROWTH” (priority 2012, published 2014).

Tests used:
[1] = not given; remark: listed apart in the source
[2] = in ointments and gels, dose up to 1,000 IU/g

| Bioavailability | Duration of the effects of heparin in tissues ([1]; after a single skin application) | Part of preparation deposited in the upper layers of skin ([1]; after application of ointment or gel) | Effect on bleeding time [1, 2] | Systemic effect [1, 2] | Substance |
| --- | --- | --- | --- | --- | --- |
| high |  |  |  |  | Low molecular weight heparin |
| low | up to 8 hours | up to 50% | does not affect the bleeding time | does not have a systemic effect | heparin sodium [Unfractionated heparin] |
